From patent publication US11873321B2, “Compositions and methods for treating alzheimer's disease” (Generos Biopharma Ltd., priority 2017, dated 2024)

Columns and labels:
[1] = test system: SH-SY5Y cells; conditions: co-treatment with 25-OHC, cells lysed 24 h later, blotted for APP
[2] = test system: APP over-expression SH-SY5Y cell line; test: FACS analysis of surface APP; assay type: cell-based, human; conditions: 25-OHC treated vs control cells
Experimental: (§1) FIGS. 8A-8C show graphs and images depicting that treatment with 25-OHC decreased exosomal APP but increases intracellular APP. SH-SY5Y cells with APP over-expression were treated with different dosage of 25-OHC.
More amounts of APP were detected on the cell surface of cells overexpressing APP after 25-OHC treatment.

[3] = test system: APP over-expression SH-SY5Y cell line; test: ELISA measurement of Aβ42 in exosomes collected from cell culture medium; assay type: cell-based, human; conditions: different concentration of 25-OHC; three independent experiments
Experimental: ELISA measurement of Aβ42 in exosomes collected from cell culture medium with different concentration of 25-OHC treatment. Data are representative of three independent experiments. *p<0.05.
(§2) SH-SY5Y cells over-express human APP were cultured in DMEM with 10% FBS. One day before exosome preparation, medium was changed to blank DMEM to avoid the contamination of serum exosomes. 24 hour after medium change, the mediums were collected, and spin at 200 g for 5 min to pellet down floating cells. The cell free medium was further centrifuged at 100,000 g for 1 h at 4° C., and the pellet containing exosomes was dissolved in RIPA buffer
Quantification of Aβ42 was carried out with ELISA kit (Millipore) according to the manufactures' instructions.
Data are representative of three independent experiments.

[4] = test system: APP trafficking in cells; test: Trafficking of antibody-labelled surface APP (fixed time points, time-lapse); assay type: cell-based; conditions: 25-OHC treated vs untreated cells; in untreated cells signal disappeared within 6 hours
Experimental: FIGS. 10A-10C show images depicting increased retention time of APP inside cells after treatment with 25-OHC. […] Cells were fixed at different time points to check the distribution of APP at specific time.
We went on to check the trafficking of APP protein. Surface APP were labeled by antibody, and cells were put back to incubator and fixed at different time point for staining.

[5] = test system: APP/PS1 mice; conditions: 2-month-old, injected every other day for 1 month, vs saline
Experimental: Mice at 2-month-old were injected with 25-OHC or saline as control every other day for duration of 1 month. Brains from these mice were sectioned and stained for amyloid-beta.
All experiments were performed with mice 3-4 months old and approved by the Institutional Animal Care and Use Committee of NUS.
Tissues were fixed in 4% paraformaldehyde, dehydrated, penetrated and paraffin embedded. […] For immunofluorescence (IF) or immunohistochemistry (IHC), sections were rehydrated and stained with primary antibody against Aβ (Cell signaling), followed by incubation with fluorescence-conjugated secondary antibodies (Invitrogen).

[6] = test system: APP over-expression SH-SY5Y cell line; test: Western blot of APP in cell lysate and in exosomes purified from the medium after 25-OHC treatment; assay type: cell-based, human; conditions: different dosage of 25-OHC
Experimental: as §1, §2
We used APP over-expression SH-SY5Y cell line to further check if the difference in exosomal APP is due to 25-OHC. Cells were treated with different dosage of 25-OHC and both cell lysate and exosomes from medium were collected. […] In contract, as the dosage of 25-OHC increased, more APP was found in the cell lysate fraction.

SMILES | effect on 25-OHC induced increase of cellular APP [1] | amount of APP on cell surface (FACS) [2] | Aβ42 in exosomes (ELISA) [3] | trafficking / retention of APP in cells [4] | amount of Aβ in brain (plaque staining) [5] | cellular APP (cell lysate, Western blot) ([6]; APP over-expression SH-SY5Y cells) | exosomal APP (Western blot) ([6]; exosomes from medium)
CC(C)(C)C(=O)OCC(=O)[C@@]1(O)CC[C@H]2[C@@H]3CCC4=CC(=O)C=C[C@]4(C)[C@H]3[C@@H](O)C[C@@]21C [prednisolone trimethylacetate] | had no effect |  |  |  |  |  | 
C[C@H](CCCC(C)(C)O)[C@H]1CC[C@H]2[C@@H]3CC=C4C[C@@H](O)CC[C@]4(C)[C@H]3CC[C@]12C [25-OHC, 25-hydroxylated cholesterol] |  | increased the amount of APP on cell surface | increased Aβ42 in exosomes | the trafficking of APP was slower | significant high amount of Aβ | dosage dependent effect to increase cellular APP | decreasing exosomal APP
